Results as given in patent US8604217B2, “Compound, a process for its preparation, a pharmaceutical composition, use of a compound, a method for modulating or regulating serine/threonine kinases and a serine/threonine kinases modulating agent” (Selvita S.A., priority 2009, dated 2013).
Like-named read-outs stand apart in the source and are kept apart here.

Legend:
PIM-1 = PIM-1 (Homo sapiens (Human), UniProt P11309); assay: Luminometric kinase assay for PIM1 kinase (Kinase-Glo); format: biochemical; conditions: 1 μM ATP, 25 min at RT
Sequence of PIM-1 (P11309 whole entry): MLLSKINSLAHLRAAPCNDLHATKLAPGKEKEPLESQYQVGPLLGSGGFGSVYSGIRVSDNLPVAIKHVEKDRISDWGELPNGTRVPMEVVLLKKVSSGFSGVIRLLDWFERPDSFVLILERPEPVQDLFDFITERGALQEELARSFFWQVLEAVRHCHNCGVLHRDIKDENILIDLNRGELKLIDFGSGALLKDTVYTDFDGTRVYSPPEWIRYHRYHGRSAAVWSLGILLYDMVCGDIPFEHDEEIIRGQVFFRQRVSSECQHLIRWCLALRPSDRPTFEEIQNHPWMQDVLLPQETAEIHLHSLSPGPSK
Outline: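 Kinase and substrate reacted in 8 mM MOPS/NaOH pH7.0, 0.2 mM EDTA, 2 mM MgCl2 with 1 μM ATP for 25 min at RT, compounds serially diluted from 1 μM. Remaining ATP read by Kinase-Glo luminescence; IC50 from variable-slope sigmoidal fit.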

[1] = tested on: human chronic myelocytic leukemia K562 cells; assay: Growth inhibition test (MTS) on K562 cells; format: cell-based; conditions: 72 hours, read-out: K562 ED50
Procedure: (§1) Ten thousand cells of human chronic myelocytic leukemia K562 were inoculated into each well of a 96-well microplate (manufactured by Corning Corp.) using Iscove's MDM medium (culture medium) containing 10% fetal calf serum (FCS). Next day, a dimethyl sulfoxide (DMSO) solution of each test compound prepared in a concentration of 10 mmol/L was further diluted with culture medium to the desired concentrations (0.1, 0.5, 1, 2.5, 5 and 10 micromol/L), and the diluted solution was added to each well. The individual wells were further cultured in 5% carbon dioxide at 37° C. for 72 hours. After completion of the culture, 10 μl MTS (3-(4,5-Dimethyl-2-thiazolyl)-5-(carboxymethoxyphenyl)-2-(4-sulfophenyl)-2H-tetrazolium, inner salt assay (CellTiter96® AQueous One Solution Cell Proliferation Assay, Promega) was added to each well, and culturing was performed in 5% carbon dioxide at 37° C. for 2 hours. Using a microplate spectrophotometer (Synergy 2 multi-mode microplate reader (BioTek)), the absorbance of each well was measured at 490 nm. The value for cells not incorporated with a test compound was designated as 100%. By comparing these values with the absorbance difference obtained at the well in which each test compound was added, the cell viability (% viability) after treatment with the test compound was calculated.

[2] = tested on: human breast adenocarcinoma MCF7 cells; assay: Growth inhibition test (MTS) on MCF7 cells; format: cell-based; conditions: read-out: MCF-7 ED50
Outline: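 MCF7 cells seeded in DMEM with 10% FCS, dosed next day at 0.1–10 micromol/L (diluted from 10 mmol/L DMSO stock) and cultured 72 h at 37° C, 5% CO2. MTS added for 2 h, absorbance read at 490 nm; % viability calculated relative to untreated cells as 100%.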

[3] = tested on: human colorectal adenocarcinoma SW480 cells; assay: Growth inhibition test (MTS) on SW480 cells; format: cell-based; conditions: read-out: SW480 ED50
Procedure: as §1, with “Two” for “Ten”, “colorectal adenocarcinoma SW480” for “chronic myelocytic leukemia K562”, “Corp.), and” for “Corp.)”, “DMEM/Ham's F121:1” for “Iscove's MDM”, “5%” for “10%”

[4] = tested on: human prostate adenocarcinoma PC3 cells; assay: Growth inhibition test (MTS) on PC3 cells; format: cell-based; conditions: Homo sapiens, PC-3, 72 hours, read-out: PC-3 ED50
[5] = tested on: human hepatoma HepG2 cells; assay: Growth inhibition test (MTS) on HepG2 cells; format: cell-based; conditions: 72 hours, read-out: HepG2 ED50
Outline: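 HepG2 cells in DMEM with 10% FCS were exposed for 72 h at 37 °C, 5% CO2, to 0.1, 0.5, 1, 2.5, 5 and 10 micromol/L compound. MTS was then added for 2 h and absorbance read at 490 nm. % viability was calculated relative to untreated cells set at 100%.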

[6] = tested on: human myelomonocytic, biphenotypic leukemia MV4-11 cells; assay: Growth inhibition test (MTS) on MV4-11 cells; format: cell-based; conditions: Homo sapiens, MV4-11, 72 hours, read-out: MV-4-11 ED50
Outline: MV4-

[7] = tested on: human erytroblast leukemia HEL-92.1.7 cells; assay: Growth inhibition test (MTS) on HEL-92.1.7 cells; format: cell-based; conditions: 72 hours, read-out: HEL92 ED50
Procedure: as §1, with “erytroblast” for “chronic myelocytic”, “HEL-92.1.7” for “K562”, “RPMI 1640” for “Iscove's MDM”

[8] = tested on: human acute lymphocytic leukemia E6.1 Jurkat cells; assay: Growth inhibition test (MTS) on E6.1 Jurkat cells; format: cell-based; conditions: 72 hours, read-out: Jurkat ED50
Procedure: as §1, with “Twenty” for “Ten”, “acute lumphocytic” for “chronic myelocytic”, “E6.1 Jurkat” for “K562”, “[…]” for “Iscove's MDM”

Row | SMILES | IC50 (PIM-1) [µM] | IC50 [1] [µM] | IC50 ([2]; 72 hours) [µM] | IC50 ([3]; 72 hours) [µM] | IC50 [4] [µM] | IC50 [5] [µM] | IC50 [6] [µM] | IC50 [7] [µM] | IC50 ([2]; Homo sapiens, MCF7, 72 hours) [µM] | IC50 ([3]; Homo sapiens, SW480, 72 hours) [µM] | IC50 [8] [µM]
1 | Brc1c(Br)c(Br)c2[nH]c(NCCCn3ccnc3)nc2c1Br [Compound 65, N-(3-(1H-imidazol-1-yl)propyl)-4,5,6,7-tetrabromo-1H-benzo[d]imidazol-2-amine] | 0.0227 | – | – | 6.92 | 7.45 | – | 3.46 | 8.37 | 8.22 | – | –
2 | CN1CCN(c2nc3c(Br)c(Br)c(Br)c(Br)c3[nH]2)CC1 [Compound 21, 4,5,6,7-tetrabromo-2-(4-methylpiperazin-1-yl)-1H-benzo[d]imidazole] | 0.0419 | 7.99 | – | 5.98 | – | 6.32 | – | – | – | – | –
3 | Cc1nc2ccccn2c1CN1CCN(c2nc3c(Br)c(Br)c(Br)c(Br)c3[nH]2)CC1 [Compound 414, 4,5,6,7-tetrabromo-2-(4-((2-methyl-1H-imidazo[1,2-a]pyridin-3-yl)methyl)piperazin-1-yl)-1H-benzo[d]imidazole] | – | – | – | – | 8.94 | – | 3.03 | 7.1 | 8.23 | 4.32 | –
4 | Nc1ccccc1Nc1nc2c(Br)c(Br)c(Br)c(Br)c2[nH]1 [Compound 332, N1-(4,5,6,7-tetrabromo-1H-benzo[d]imidazol-2-yl)benzene-1,2-diamine] | 0.0162 | – | – | – | 7.51 | 6.59 | 3.27 | 3.15 | – | – | –
5 | NCc1cccc(CNc2nc3c(Br)c(Br)c(Br)c(Br)c3[nH]2)c1 [Compound 354, N-(3-(aminomethyl)benzyl)-4,5,6,7-tetrabromo-1H-benzo[d]imidazol-2-amine] | 0.108 | – | – | – | 8.59 | 2.61 | 4.47 | 6.93 | 3.09 | – | –
6 | CN1CCN(C2CCN(c3nc4c(Br)c(Br)c(Br)c(Br)c4[nH]3)CC2)CC1 [Compound 385, 4,5,6,7-tetrabromo-2-(4-(4-methylpiperazin-1-yl)piperidin-1-yl)-1H-benzo[d]imidazole] | 0.0453 | – | – | – | 6.88 | 3.76 | 4.57 | 2.21 | 5.8 | – | –

Continued, values first:

Row | IC50 (PIM-1) [µM] | IC50 [1] [µM] | IC50 ([2]; 72 hours) [µM] | IC50 ([3]; 72 hours) [µM] | IC50 [4] [µM] | IC50 [5] [µM] | IC50 [6] [µM] | IC50 [7] [µM] | IC50 ([2]; Homo sapiens, MCF7, 72 hours) [µM] | IC50 ([3]; Homo sapiens, SW480, 72 hours) [µM] | IC50 [8] [µM] | SMILES
7 | 0.0578 | 3.59 | 7.76 | 1.53 | 3.96 | 2.12 | – | – | – | – | – | Brc1c(Br)c(Br)c2[nH]c(NCCN3CCCC3)nc2c1Br [Compound 14, 4,5,6,7-tetrabromo-N-(2-(pyrrolidin-1-yl)ethyl)-1H-benzo[d]imidazol-2-amine]
8 | 0.0069 | – | – | – | 1.47 | 1.34 | 0.33 | 1.82 | 0.7 | – | – | N[C@H]1CCCC[C@H]1Nc1nc2c(Br)c(Br)c(Br)c(Br)c2[nH]1 (relative stereo) [Compound 304cis, cis N1-(4,5,6,7-tetrabromo-1H-benzo[d]imidazol-2-yl)cyclohexane-1,2-diamine]
9 | 0.0452 | – | – | – | 2.4 | 1.32 | 1.65 | 3.98 | 2.54 | – | – | CNCCCN(Cc1ccccc1)c1nc2c(Br)c(Br)c(Br)c(Br)c2[nH]1 [Compound 372, N-benzyl-4,5,6,7-tetrabromo-N-(3-(methylamino)propyl)-1H-benzo[d]imidazol-2-amine]
10 | 0.0485 | – | – | – | 2.49 | 4.52 | 3.86 | 3.25 | 4.76 | – | – | Nc1cc(F)c(F)cc1Nc1nc2c(Br)c(Br)c(Br)c(Br)c2[nH]1 [Compound 333, N1-(4,5,6,7-tetrabromo-1H-benzo[d]imidazol-2-yl)-4,5-difluorobenzene-1,2-diamine]
11 | 0.0475 | – | – | – | 2.64 | 2.66 | 2.39 | – | 2.76 | – | 2.56 | CN1CCC(N(C)CC(Nc2nc3c(Br)c(Br)c(Br)c(Br)c3[nH]2)c2ccccc2)CC1 (stereo not shown) [Compound 263, N-(4,5,6,7-tetrabromo-1H-benzo[d]imidazol-2-yl)-N′-methyl-N′-(1-methylpiperidin-4-yl)-1-phenylethane-1,2-diamine]
12 | – | – | – | – | 5.99 | 9.72 | 5.92 | 9.73 | – | – | – | CCOC(=O)N1CCN(c2nc3c(Br)c(Br)c(Br)c(Br)c3n2C(=O)OCC)CC1 [Compound 377, ethyl 2-(4-(ethoxycarbonyl)piperazin-1-yl)-4,5,6,7-tetrabromo-1H-benzo[d]imidazole-1-carboxylate]
13 | – | – | – | – | 6.61 | 9.4 | 5.17 | 7.93 | – | – | – | CCOC(=O)N1CCN(c2nc3c(Br)c(Br)c(Br)c(Br)c3[nH]2)CC1 [Compound 376, ethyl 4-(4,5,6,7-tetrabromo-1H-benzo[d]imidazol-2-yl)piperazine-1-carboxylate]
14 | 0.051 | – | – | – | 3.15 | 2.62 | 1.19 | – | 4.93 | – | 4.92 | CN(C)CCN1CCC(CNc2nc3c(Br)c(Br)c(Br)c(Br)c3[nH]2)C1 (stereo not shown) [Compound 166, 4,5,6,7-tetrabromo-N-((1-(2-(dimethylamino)ethyl)pyrrolidin-3-yl)methyl)-1H-benzo[d]imidazol-2-amine]
